# Results published in patent EP3295938B1, “USE OF TRIETHYL ORTHOACETATE IN THE TREATMENT OF METAL OVERLOAD DISEASES” (ÜSKÜDAR ÜNIVERSITESI, priority 2016, dated 2018).
# Experiments:
# [1] = Iron chelation activity (FeSO4/ferrozine, absorbance at 562 nm); type: biochemical; conditions: 100, 200 and 400 mM pure triethyl orthoacetate (Fig. 7)
# Description: Negative controls and methanolicmicroalgae extracts (400 µl) were pipetted into 24 well plate, then 100 µl of 0.25mM FeSO4 solution (dissolved in methanol) was added. For the reaction initiation, 100 µl 5mM ferrozine dissolved in methanol was added. Solution was homogenized by pipetting and incubated for 10 minutes at room temperature. After incubation, it was analysed by using spectrophotometric measurement at 562nm wavelength. In vitro experiments with pure triethyl orthoacetate compound was also conducted with the concentrations of 100, 200 and 400 mM respectively. Same experimental protocol was used for pure triethyl orthoacetate as described in detail above for Spirulina platensis extract.
# [2] = after intravenous infusion; cited from earlier work
Structure (SMILES),in vitro iron chelating activity [1],vascular half-life [2]
"CCOC(C)(OCC)OCC [triethyl orthoacetate, Triethyl orthoacetate]",> 70%,
CC(=O)N(O)CCCCCNC(=O)CCC(=O)N(O)CCCCCNC(=O)CCC(=O)N(O)CCCCCN [deferoxamine],,5 to 10 min
